In PubChem BioAssay AID330 (DTP/NCI, 2004):
“And” between values parts separate entries of the source, which are not always exact repeats. Identical values can stand only once. Toxic doses and inconclusive results are not listed. Rule for the calls: active = survival T/C of 150% or more; inactive = T/C below 125% in these data.

Test system: P388 leukemia ip, CD2F1 mice, survival T/C
Experiment: NCI In Vivo Anticancer Drug Screen. Data for tumor model P388 Leukemia (intraperitoneal) in CD2F1 (CDF1) mice
Conditions: endpoint: median survival time, higher = longer survival
Outline: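 Mice carrying the transplanted tumor received test compound or vehicle. Survival was recorded in each group, and the value is the treated-group measurement divided by that of the vehicle-treated control group.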

[1] = dose: 60.0 mg/kg/injection, schedule: Q01DX005 (ip), vehicle: saline with Tween-80
[2] = dose: 120.0 mg/kg/injection, schedule: Q01DX005 (ip), vehicle: saline with Tween-80
[3] = dose: 240.0 mg/kg/injection, schedule: Q01DX005 (ip), vehicle: saline with Tween-80

Measured: T/C

CC(=O)OCC1OC(OC(C)=O)C(NC(=O)CN(Cc2ccccc2)S(C)(=O)=O)C(OC(C)=O)C1OC(C)=O (stereo not given)
inactive: dose: 12.5 mg/kg/injection, schedule: Q01DX009 (ip), vehicle: other 91 % of control | dose: 25.0 mg/kg/injection, schedule: Q01DX009 (ip), vehicle: other 99 % of control | dose: 50.0 mg/kg/injection, schedule: Q01DX009 (ip), vehicle: other 96 % of control | dose: 100.0 mg/kg/injection, schedule: Q01DX009 (ip), vehicle: other 93 % of control | dose: 200.0 mg/kg/injection, schedule: Q01DX009 (ip), vehicle: other 105 % of control

C/C(=C\C(=O)c1ccccc1)Nc1ccccc1Cl
inactive: dose: 12.5 mg/kg/injection, schedule: Q01DX009 (ip), vehicle: saline 100 % of control | dose: 25.0 mg/kg/injection, schedule: Q01DX009 (ip), vehicle: saline 102 % of control | dose: 50.0 mg/kg/injection, schedule: Q01DX009 (ip), vehicle: saline 89 % of control

O=C1CC(C(=O)O)N(C(=O)Oc2ccccc2)C(C(=O)O)C1 (stereo not given)
inactive: dose: 4.38 mg/kg/injection, schedule: Q01DX005 (ip), vehicle: Klucel (hydroxypropylcellulose) (HPC) 98 % of control | dose: 8.75 mg/kg/injection, schedule: Q01DX005 (ip), vehicle: Klucel (hydroxypropylcellulose) (HPC) 105 % of control | dose: 17.5 mg/kg/injection, schedule: Q01DX005 (ip), vehicle: Klucel (hydroxypropylcellulose) (HPC) 101 % of control

O=C1c2cccnc2C(=O)N1Cc1ccccc1
inactive: dose: 100.0 mg/kg/injection, schedule: Q04DX003 (ip), vehicle: saline with Tween-80 95 % of control | dose: 200.0 mg/kg/injection, schedule: Q04DX003 (ip), vehicle: saline with Tween-80 95 % of control | dose: 400.0 mg/kg/injection, schedule: Q04DX003 (ip), vehicle: saline with Tween-80 90 % of control

Cn1c(=O)n2n(c1=O)C1(CCO)CCC2(CCO)CC1
inactive: dose: 50.0 mg/kg/injection, schedule: Q01DX005 (ip), vehicle: saline with Tween-80 99 % of control | dose: 100.0 mg/kg/injection, schedule: Q01DX005 (ip), vehicle: saline with Tween-80 103 % of control | dose: 200.0 mg/kg/injection, schedule: Q01DX005 (ip), vehicle: saline with Tween-80 100 % of control

CC1=NN(C(=O)c2ccccc2)C(=O)C1N=Nc1ccc([N+](=O)[O-])cc1 (stereo not given)
inactive: dose: 25.0 mg/kg/injection, schedule: Q04DX002 (ip), vehicle: saline with Tween-80 101 % of control | dose: 50.0 mg/kg/injection, schedule: Q04DX002 (ip), vehicle: saline with Tween-80 100 % of control | dose: 100.0 mg/kg/injection, schedule: Q04DX002 (ip), vehicle: saline with Tween-80 88 % of control and 92 % of control

[N-]=[N+]=CC(=O)CCC(=O)C=[N+]=[N-]
inactive: dose: 0.75 mg/kg/injection, schedule: Q01DX009 (ip), vehicle: other 123 % of control | dose: 0.78 mg/kg/injection, schedule: Q01DX007 (ip), vehicle: DMSO 101 % of control | dose: 1.56 mg/kg/injection, schedule: Q01DX007 (ip), vehicle: DMSO 117 % of control | dose: 6.0 mg/kg/injection, schedule: Q01DX009 (ip), vehicle: other 104 % of control | dose: 12.5 mg/kg/injection, schedule: Q01DX007 (ip), vehicle: DMSO 93 % of control | dose: 25.0 mg/kg/injection, schedule: Q01DX007 (ip), vehicle: DMSO 93 % of control
active: dose: 3.0 mg/kg/injection, schedule: Q01DX009 (ip), vehicle: other 170 % of control | dose: 6.25 mg/kg/injection, schedule: Q01DX007 (ip), vehicle: DMSO 158 % of control

COc1cc(C2c3cc4c(cc3OC(C)(O)C2C(C)=O)OCO4)cc(OC)c1O (stereo not given)
inactive: [1] 95 % of control | [2] 97 % of control | [3] 90 % of control

O=C(O)c1ccc(N=CC2CO2)cc1 (stereo not given)
inactive: dose: 50.0 mg/kg/injection, schedule: Q01DX009 (ip), vehicle: saline with Tween-80 99 % of control | dose: 100.0 mg/kg/injection, schedule: Q01DX009 (ip), vehicle: saline with Tween-80 102 % of control | dose: 200.0 mg/kg/injection, schedule: Q01DX009 (ip), vehicle: saline with Tween-80 87 % of control

NC(=O)C(F)(F)C(F)(F)C(N)=O
inactive: [1] 107 % of control | [2] 112 % of control | [3] 104 % of control

COC(=O)/C=C/N=[N+]=[N-]
inactive: [1] 106 % of control | [2] 106 % of control | [3] 106 % of control
